The assay relates to MARCKS phosphorylation in NHBE cells. As to the kind of experiment: MARCKS phosphorylation in NHBE cells, radiolabeled immunoprecipitation assay. The following applies: 100 nM PMA, NHBE cells. Type of assay: cell-based, human. The procedure: Radiolabeled Immunoprecipitation Assay—When labeling with [^32P]phosphate, cells were preincubated for 2 h in phosphate-free Dulbecco's modified Eagle's medium containing 0.2% bovine serum albumin and then labeled with 0.1 mCi/ml [^32P]orthophosphate (9000 Ci/mmol, PerkinElmer Life Sciences) for 2 h. For labeling with [^3H]myristic acid or 3H-amino acids, cells were incubated overnight in medium containing 50 μCi/ml [^3H]myristic acid (49 Ci/mmol, PerkinElmer Life Sciences) or 0.2 mCi/ml [^3H]leucine (159 Ci/mmol, PerkinElmer Life Sciences) plus 0.4 mCi/ml [^3H]proline (100 Ci/mmol, PerkinElmer Life Sciences). Following labeling, cells were exposed to stimulatory reagents for 5 min. When an inhibitor was used, cells were preincubated with the inhibitor for 15 min prior to stimulation. At the end of the treatments, cells were lysed in a buffer containing 50 mM Tris-HCl (pH 7.5), 150 mM NaCl, 1 mM EDTA, 10% glycerol, 1% Nonidet P-40, 1 mM phenylmethylsulfonyl fluoride, 1 mM benzamidine, 10 μg/ml pepstatin A, and 10 μg/ml leupeptin. Trichloroacetic acid precipitation and scintillation counting may determine the radiolabeling efficiency in each culture. Immunoprecipitation of MARCKS protein was carried out according to the method of Spizz and Blackshear using cell lysates containing equal counts/min. Spizz et al., J. Biol. Chem. 271, 553-562 (1996). Precipitated proteins were resolved by 8% SDS-polyacrylamide gel electrophoresis and visualized by autoradiography. Anti-human MARCKS antibody (2F12) and nonimmune control antibody (6F6) were used in this assay.
To assess MARCKS or MARCKS-associated protein complexes in different subcellular fractions, radiolabeled and treated cells were scraped into a homogenization buffer (50 mM Tris-HCl (pH 7.5), 10 mM NaCl, 1 mM EDTA, 1 mM phenylmethylsulfonyl fluoride, 1 mM benzamidine, 10 μg/ml pepstatin A, 10 μg/ml leupeptin) and then disrupted by nitrogen cavitation (800 pounds/square inch for 20 min at 4° C.). Cell lysates were centrifuged at 600×g for 10 min at 4° C. to remove nuclei and unbroken cells. Post-nuclear supernatants were separated into membrane and cytosol fractions by ultracentrifugation at 400,000×g for 30 min at 4° C. The membrane pellet was solubilized in the lysis buffer by sonication. Immunoprecipitation was then carried out as described above.

For the compound `CCCCCCCCCCCCCC(=O)O[C@@H]1[C@@H](C)[C@@]2(O)[C@@H](C=C(CO)C[C@]3(O)C(=O)C(C)=C[C@@H]23)[C@@H]2C(C)(C)[C@]12OC(C)=O` [PMA, phorbol 12-myristate 13-acetate], the “increase in MARCKS phosphorylation” value was 3-4 fold.

The values are drawn from patent US20230293629A1, “METHODS FOR ATTENUATING RELEASE OF INFLAMMATORY MEDIATORS AND PEPTIDES USEFUL THEREIN” (BIOMARCK PHARMACEUTICALS LTD., priority 2006, published 2023).
